Assay results from patent US20080200404A1, “Novel Antimalarial 9A-Carbamoyl-Aminoalkyl and 9A-Thiocarbamoyl-Aminoalkyl Azalides” (priority 2005, published 2008).
Values after ≈ are worked out from the molar mass of the structure shown. Where two headings read alike, the source gives them in different places.

What was measured:
Format in all cases: cell-based
[1] = test system: Plasmodium falciparum clone CDC/Indochina III (W-2); assay: In vitro antimalarial [3H]-hypoxanthine incorporation serial dilution assay, W2; details: P. falciparum W2, 72 hours exposure; for IC50: Plasmodium falciparum
Method in brief: (§1)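 Blood-stage cultures in RPMI-1640 with 6% A+ erythrocytes and human plasma or ALBUMAX, 37° C under 5% CO2/5% O2. Compounds in two-fold dilutions over 11 concentrations; [3H]-hypoxanthine incorporation after 72 h total incubation, CPM normalised to untreated parasite controls; IC50 by non-linear logistic fit.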

[2] = test system: Plasmodium falciparum TM91C235; assay: In vitro antimalarial [3H]-hypoxanthine incorporation assay, TM91C235; details: P. falciparum TM91C235 (multiple drug resistant isolate), 72 hours exposure; for IC50: Plasmodium falciparum
Method in brief: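 Multidrug-resistant P. falciparum TM91C235 was run at 0.4% parasitemia and 1% hematocrit in folate/PABA-free RPMI-1640 with ALBUMAX, at 37° C under 5% CO2/5% O2. Compound was tested in duplicate at 25,000, 2,500 and 25 ng/ml, preexposed 48 h, then [3H]-hypoxanthine was added (72 h total). Counts are expressed relative to untreated parasite controls.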

[3] = test system: Plasmodium falciparum clone CDC/Sierra Leone I (D-6); assay: In vitro antimalarial [3H]-hypoxanthine incorporation serial dilution assay, D6; details: P. falciparum D6, 72 hours exposure; for IC50: Plasmodium falciparum, D6, 72 h
Method in brief: as §1

[4] = compared with azithromycin, read-out: IC50 D6 (class symbol)

Compound	IC50 W2 [1] [µg/mL]	IC50 TM91C235 [2] [µg/mL]	IC50 D6 [3] [µg/mL]	IC50 [1] [µg/mL]	IC50 [2] [µg/mL]	IC50 ([3]; read-out: IC50 D6) [µg/mL]	IC50 [3, 4] [µg/mL]
CCC1OC(=O)C(C)C(OC2CC(C)(OC)C(O)C(C)O2)C(C)C(OC2OC(C)CC(N(C)C)C2O)C(C)(O)CC(C)CN(CCNC(=O)NCc2ccccc2)C(C)C(O)C1(C)O (stereo not drawn) [Example 3, 9-Deoxo-9-dihydro-9a-(N′-benzylcarbamoyl-β-aminoethyl)-9a-aza-9a-homoerythromycin A]	0.2617 (≈ 0.287 µM)	0.1547 (≈ 0.17 µM)	0.292 (≈ 0.32 µM)	–	–	–	–
CC[C@H]1OC(=O)[C@H](C)[C@@H](O[C@H]2C[C@@](C)(OC)[C@@H](O)[C@H](C)O2)[C@H](C)[C@@H](O[C@@H]2O[C@H](C)C[C@H](N(C)C)[C@H]2O)[C@](C)(O)C[C@@H](C)CN(CCCNC(=S)Nc2ccc(Cl)c(C(F)(F)F)c2)[C@H](C)[C@@H](O)[C@]1(C)O [Example 124]	–	–	–	0.0575 (≈ 0.0558 µM)	0.0122 (≈ 0.0118 µM)	0.0559 (≈ 0.0543 µM)	–
CC[C@H]1OC(=O)[C@H](C)[C@@H](O[C@@H]2C[C@@H](C)[C@H](O)[C@](C)(OC)C2)[C@H](O)[C@@H](O[C@@H]2O[C@H](C)C[C@H](N(C)C)[C@H]2O)[C@](C)(O)C[C@@H](C)CN(CCCNC(=O)Nc2ccc(OCc3ccccc3)cc2)[C@H](C)[C@@H](O)[C@]1(C)O [Example 87]	–	–	–	0.178 (≈ 0.175 µM)	0.148 (≈ 0.146 µM)	0.304 (≈ 0.299 µM)	–
CC[C@H]1OC(=O)[C@H](C)[C@@H](O[C@H]2C[C@@](C)(OC)[C@@H](O)[C@H](C)O2)[C@H](C)[C@@H](O[C@@H]2O[C@H](C)C[C@H](N(C)C)[C@H]2O)[C@](C)(O)C[C@@H](C)CN(CCCNC(=S)Nc2cc(F)ccc2C)[C@H](C)[C@@H](O)[C@]1(C)O [Example 62]	–	–	–	0.0502 (≈ 0.0523 µM)	0.11 (≈ 0.115 µM)	0.373 (≈ 0.389 µM)	–
CCC1OC(=O)C(C)C(OC2CC(C)(OC)C(O)C(C)O2)C(C)C(OC2OC(C)CC(N(C)C)C2O)C(C)(O)CC(C)CN(CCNC(=O)Nc2ccc3ccccc3c2)C(C)C(O)C1(C)O (stereo not drawn) [Example 12, 9-Deoxo-9-dihydro-9a-[N′-(2-naphtyl)carbamoyl-β-aminoethyl]-9a-aza-9a-homoerythromycin A]	0.0432 (≈ 0.0456 µM)	0.0289 (≈ 0.0305 µM)	0.0713 (≈ 0.0753 µM)	–	–	–	–
CC[C@H]1OC(=O)[C@H](C)[C@@H](O[C@H]2C[C@@](C)(OC)[C@@H](O)[C@H](C)O2)[C@H](C)[C@@H](O[C@@H]2O[C@H](C)C[C@H](N(C)C)[C@H]2O)[C@](C)(O)C[C@@H](C)CN(CCCNC(=S)Nc2ccc(N(C)C)c3ccccc23)[C@H](C)[C@@H](O)[C@]1(C)O.O=CO [Example 142]	–	–	–	0.186	0.192	0.348	–
CCNC(=O)NCCN1C[C@H](C)C[C@@](C)(O)[C@H](O[C@@H]2O[C@H](C)C[C@H](N(C)C)[C@H]2O)[C@@H](C)[C@H](O[C@H]2C[C@@](C)(OC)[C@@H](O)[C@H](C)O2)[C@@H](C)C(=O)O[C@H](CC)[C@@](C)(O)[C@H](O)[C@H]1C [Example 158, 9-Deoxo-9-dihydro-9a-[N′-(ethyl)carbamoyl-β-amino-ethyl]-9a-aza-9a-homoerythromycin A]	–	–	–	0.405 (≈ 0.476 µM)	0.103 (≈ 0.121 µM)	0.167 (≈ 0.197 µM)	–
CC[C@H]1OC(=O)[C@H](C)[C@@H](O[C@H]2C[C@@](C)(OC)[C@@H](O)[C@H](C)O2)[C@H](C)[C@@H](O[C@@H]2O[C@H](C)C[C@H](N(C)C)[C@H]2O)[C@](C)(O)C[C@@H](C)CN(CCCNC(=O)Nc2ccc(C(F)(F)F)cc2)[C@H](C)[C@@H](O)[C@]1(C)O.O=CO [Example 70]	–	–	–	0.0765	0.0863	0.164	–
CC[C@H]1OC(=O)[C@H](C)[C@@H](O[C@H]2C[C@@](C)(OC)[C@@H](O)[C@H](C)O2)[C@H](C)[C@@H](O[C@@H]2O[C@H](C)C[C@H](N(C)C)[C@H]2O)[C@](C)(O)C[C@@H](C)CN(CCCNC(=O)Nc2cc(F)cc3c2OCOC3)[C@H](C)[C@@H](O)[C@]1(C)O.O=CO [Example 82]	–	–	–	0.316	0.227	0.293	–
CC[C@H]1OC(=O)[C@H](C)[C@@H](O[C@H]2C[C@@](C)(OC)[C@@H](O)[C@H](C)O2)[C@H](C)[C@@H](O[C@@H]2O[C@H](C)C[C@H](N(C)C)[C@H]2O)[C@](C)(O)C[C@@H](C)CN(CCCNC(=O)NCc2ccc(OC)cc2)[C@H](C)[C@@H](O)[C@]1(C)O [Example 67]	–	–	–	0.195 (≈ 0.204 µM)	0.462 (≈ 0.484 µM)	–	> 0.797
CC[C@H]1OC(=O)[C@H](C)[C@@H](O[C@H]2C[C@@](C)(OC)[C@@H](O)[C@H](C)O2)[C@H](C)[C@@H](O[C@@H]2O[C@H](C)C[C@H](N(C)C)[C@H]2O)[C@](C)(O)C[C@@H](C)CN(CCCNC(=S)Nc2c(F)cccc2F)[C@H](C)[C@@H](O)[C@]1(C)O [Example 104]	–	–	–	0.0831 (≈ 0.0863 µM)	0.181 (≈ 0.188 µM)	0.49 (≈ 0.509 µM)	–
CCC1OC(=O)C(C)C(OC2CC(C)(OC)C(O)C(C)O2)C(C)C(OC2OC(C)CC(N(C)C)C2O)C(C)(O)CC(C)CN(CCNC(=O)Nc2cccc3ccccc23)C(C)C(O)C1(C)O (stereo not drawn) [Example 2, 9-Deoxo-9-dihydro-9a-[N′-(1-naphtyl)carbamoyl-β-aminoethyl]-9a-aza-9a-homoerythromycin A]	0.0744 (≈ 0.0785 µM)	0.0399 (≈ 0.0421 µM)	0.1344 (≈ 0.142 µM)	–	–	–	–
C=CCNC(=S)NCCCN1C[C@H](C)C[C@@](C)(O)[C@H](O[C@@H]2O[C@H](C)C[C@H](N(C)C)[C@H]2O)[C@@H](C)[C@H](O[C@H]2C[C@@](C)(OC)[C@@H](O)[C@H](C)O2)[C@@H](C)C(=O)O[C@H](CC)[C@@](C)(O)[C@H](O)[C@H]1C [Example 111]	–	–	–	0.246 (≈ 0.276 µM)	0.459 (≈ 0.514 µM)	–	> 0.797
CC[C@H]1OC(=O)[C@H](C)[C@@H](O[C@H]2C[C@@](C)(OC)[C@@H](O)[C@H](C)O2)[C@H](C)[C@@H](O[C@@H]2O[C@H](C)C[C@H](N(C)C)[C@H]2O)[C@](C)(O)C[C@@H](C)CN(CCCNC(=S)Nc2ccc(Cl)cc2)[C@H](C)[C@@H](O)[C@]1(C)O [Example 103]	–	–	–	0.0514 (≈ 0.0534 µM)	0.103 (≈ 0.108 µM)	0.18 (≈ 0.188 µM)	–

Other lines, results leading:

IC50 W2 [1] [µg/mL]	IC50 TM91C235 [2] [µg/mL]	IC50 D6 [3] [µg/mL]	IC50 [1] [µg/mL]	IC50 [2] [µg/mL]	IC50 ([3]; read-out: IC50 D6) [µg/mL]	IC50 [3, 4] [µg/mL]	Compound
–	–	–	0.0626 (≈ 0.063 µM)	0.12 (≈ 0.121 µM)	0.215 (≈ 0.216 µM)	–	CC[C@H]1OC(=O)[C@H](C)[C@@H](O[C@H]2C[C@@](C)(OC)[C@@H](O)[C@H](C)O2)[C@H](C)[C@@H](O[C@@H]2O[C@H](C)C[C@H](N(C)C)[C@H]2O)[C@](C)(O)C[C@@H](C)CN(CCCNC(=S)Nc2ccc(OC(F)F)cc2)[C@H](C)[C@@H](O)[C@]1(C)O [Example 106]
–	–	–	0.435 (≈ 0.489 µM)	1.05 (≈ 1.18 µM)	–	> 0.797	CCC(C)NC(=O)NCCCN1C[C@H](C)C[C@@](C)(O)[C@H](O[C@@H]2O[C@H](C)C[C@H](N(C)C)[C@H]2O)[C@@H](C)[C@H](O[C@H]2C[C@@](C)(OC)[C@@H](O)[C@H](C)O2)[C@@H](C)C(=O)O[C@H](CC)[C@@](C)(O)[C@H](O)[C@H]1C (stereo partly drawn) [Example 55]
–	–	–	0.0693 (≈ 0.0738 µM)	0.0933 (≈ 0.0993 µM)	0.212 (≈ 0.226 µM)	–	CCc1ccc(NC(=O)NCCCN2C[C@H](C)C[C@@](C)(O)[C@H](O[C@@H]3O[C@H](C)C[C@H](N(C)C)[C@H]3O)[C@@H](C)[C@H](O[C@H]3C[C@@](C)(OC)[C@@H](O)[C@H](C)O3)[C@@H](C)C(=O)O[C@H](CC)[C@@](C)(O)[C@H](O)[C@H]2C)cc1 [Example 60]
–	–	–	0.0671 (≈ 0.0713 µM)	0.154 (≈ 0.164 µM)	0.311 (≈ 0.33 µM)	–	CC[C@H]1OC(=O)[C@H](C)[C@@H](O[C@H]2C[C@@](C)(OC)[C@@H](O)[C@H](C)O2)[C@H](C)[C@@H](O[C@@H]2O[C@H](C)C[C@H](N(C)C)[C@H]2O)[C@](C)(O)C[C@@H](C)CN(CCCNC(=S)Nc2ccc(C)cc2)[C@H](C)[C@@H](O)[C@]1(C)O [Example 97]
–	–	–	0.198	0.115	0.507	–	CC[C@H]1OC(=O)[C@H](C)[C@@H](O[C@H]2C[C@@](C)(OC)[C@@H](O)[C@H](C)O2)[C@H](C)[C@@H](O[C@@H]2O[C@H](C)C[C@H](N(C)C)[C@H]2O)[C@](C)(O)C[C@@H](C)CN(CCCNC(=S)Nc2cccc(F)c2)[C@H](C)[C@@H](O)[C@]1(C)O.O=CO [Example 131]
–	–	–	0.708	0.398	–	> 0.797	CC[C@H]1OC(=O)[C@H](C)[C@@H](O[C@H]2C[C@@](C)(OC)[C@@H](O)[C@H](C)O2)[C@H](C)[C@@H](O[C@@H]2O[C@H](C)C[C@H](N(C)C)[C@H]2O)[C@](C)(O)C[C@@H](C)CN(CCCNC(=O)Nc2ccc(C(C)=O)cc2)[C@H](C)[C@@H](O)[C@]1(C)O.O=CO [Example 65]
–	–	–	0.171	0.181	0.299	–	CC[C@H]1OC(=O)[C@H](C)[C@@H](O[C@H]2C[C@@](C)(OC)[C@@H](O)[C@H](C)O2)[C@H](C)[C@@H](O[C@@H]2O[C@H](C)C[C@H](N(C)C)[C@H]2O)[C@](C)(O)C[C@@H](C)CN(CCCNC(=S)NC2CC3C=CC2C3)[C@H](C)[C@@H](O)[C@]1(C)O.O=CO (stereo partly drawn) [Example 151]
–	–	–	0.0461	0.111	0.247	–	CC[C@H]1OC(=O)[C@H](C)[C@@H](O[C@H]2C[C@@](C)(OC)[C@@H](O)[C@H](C)O2)[C@H](C)[C@@H](O[C@@H]2O[C@H](C)C[C@H](N(C)C)[C@H]2O)[C@](C)(O)C[C@@H](C)CN(CCCNC(=S)Nc2ccc(C3CC4CCC3C4)cc2)[C@H](C)[C@@H](O)[C@]1(C)O.O=CO (stereo partly drawn) [Example 110]
–	–	–	0.0476 (≈ 0.05 µM)	0.0745 (≈ 0.0782 µM)	0.126 (≈ 0.132 µM)	–	CC[C@H]1OC(=O)[C@H](C)[C@@H](O[C@H]2C[C@@](C)(OC)[C@@H](O)[C@H](C)O2)[C@H](C)[C@@H](O[C@@H]2O[C@H](C)C[C@H](N(C)C)[C@H]2O)[C@](C)(O)C[C@@H](C)CN(CCCNC(=S)Nc2ccc(C#N)cc2)[C@H](C)[C@@H](O)[C@]1(C)O [Example 98]
